According to patent publication US8012963B2, “3,4-dihydro-2H-benzo[1,4]oxazine and thiazine derivatives as CETP inhibitors” (Janssen Pharmaceutica N.V., priority 2006, dated 2011):
pIC50: −log10 of the molar value. Values joined by “and” are separate entries in the source; they are usually repeats but may differ in a detail not shown here. Equal values may be shown once.

Target: T1, CETP (Homo sapiens, UniProt P11597)
T1 construct: from tissue; host or cells: human plasma from normal volunteers
T1 sequence (P11597 18-493): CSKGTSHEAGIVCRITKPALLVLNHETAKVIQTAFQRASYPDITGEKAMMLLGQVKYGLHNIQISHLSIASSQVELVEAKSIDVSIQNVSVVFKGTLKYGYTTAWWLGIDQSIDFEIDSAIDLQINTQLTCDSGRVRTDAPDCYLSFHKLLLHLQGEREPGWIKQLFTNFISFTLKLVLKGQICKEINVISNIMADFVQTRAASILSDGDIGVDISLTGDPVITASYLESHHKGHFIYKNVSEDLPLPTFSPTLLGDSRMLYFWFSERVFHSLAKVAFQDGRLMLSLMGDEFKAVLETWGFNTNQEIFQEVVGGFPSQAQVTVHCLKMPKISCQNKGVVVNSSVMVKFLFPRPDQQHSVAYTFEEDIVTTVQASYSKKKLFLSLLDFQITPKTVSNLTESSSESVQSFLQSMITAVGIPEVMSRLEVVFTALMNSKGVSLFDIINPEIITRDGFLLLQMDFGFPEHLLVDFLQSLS
Assay: CETP in vitro assay ([3H]CE-HDL transfer, Amersham kit TRKQ7005; modified protocol in human plasma)
Type: biochemical
Conditions: multiple values = multiple measurements; for % Inhibition @ 1 μM / inhibition at 1 µM: 1 μM compound
Description: The CETP inhibitory activity of the compounds was determined using a commercially available kit from Amersham Biosciences (Catalog #TRKQ7005).
For the measurement of inhibitory activity in human plasma, a modified protocol (Connolly, D. T. et al., Biochemistry, 39 13870-13879, 2000) was used. Briefly, 80 μl of human plasma (obtained from normal volunteers), approximately 25 μg/ml (200) of [^3H]CE-HDL (Amersham Biosciences from kit TRKQ7005) and 1 μl of compound dissolved in DMSO was incubated for at least 4 hrs at 37° C. and non-specific transfer was determined by incubating a corresponding plate at 4° C. (blank). After the incubation period, 100 of a solution of 1% Dextralip 50/0.5M MgCl2, pH 7.4 was added, vortexed and incubated at room temperature for 10 min. The plate was then centrifuged for 30 min at 10° C. at 3000 rpm in a Sorvall RT6000B centrifuge. Fifty microliters of the supernatant was transferred to a Picoplate (Packard) containing 100 μl of Microscint 40 (Perkin Elmer) and mixed for 30 min using a plate mixer. The radioactivity was counted using a TopCount (Perkin Elmer) and the % control was determined in the samples using the following formula: % transfer relative to vehicle controls (% control)=[cpm blank-cpm test]/cpm blank/cpm control]×100. IC50s were calculated from plots of the % control versus compound concentration.
A variety of example compounds have been made and tested, with a range of in vitro results. Below, in Table 2, are representative compounds and the corresponding data; in some cases, where multiple IC50's are shown, multiple measurements were taken. Naturally, different compounds in Formula (I), (Ia), (Ib) and (Ic) may have not activities identical to any one compound below.

SMILES	% Inhibition @ 1 μM	inhibition at 1 µM [%]	pIC50
OC(CF)CN1c2cccc(-c3cccc(OC(F)(F)F)c3)c2OCC1c1cccc(OC(F)(F)C(F)F)c1 (centres unmarked) [Compound 69, 1-Fluoro-3-[3-[3-(1,1,2,2-tetrafluoro-ethoxy)-phenyl]-8-(3-trifluoromethoxy-phenyl)-2,3-dihydro-benzo[1,4]oxazin-4-yl]-propan-2-ol]	50%		
CCc1ccc(C2COc3c(-c4cccc(OC(F)(F)F)c4)cccc3N2CC(O)C(F)(F)F)s1 (centres unmarked) [Compound 59, 3-[3-(5-Ethyl-thiophen-2-yl)-8-(3-trifluoromethoxy-phenyl)-2,3-dihydro-benzo[1,4]oxazin-4-yl]-1,1,1-trifluoro-propan-2-ol]	0%		
CN1CCN(CCN2c3cccc(-c4cccc(OC(F)(F)F)c4)c3OCC2c2cccc(OC(F)(F)C(F)F)c2)CC1 (centres unmarked) [Compound 31, 4-[2-(4-Methyl-piperazin-1-yl)-ethyl]-3-[3-(1,1,2,2-tetrafluoro-ethoxy)-phenyl]-8-(3-trifluoromethoxy-phenyl)-3,4-dihydro-2H-benzo[1,4]oxazine]		17	
O[C@H](CN1c2cccc(-c3cc(F)cc(F)c3)c2OC[C@@H]1c1cccc(OC(F)(F)C(F)F)c1)C(F)(F)F [Compound 73, 4H-1,4-Benzoxazine-4-ethanol, 8-(3,5-difluorophenyl)-2,3-dihydro-3-[3-(1,1,2,2-tetrafluoroethoxy)phenyl]-α-(trifluoromethyl)-, (3S,αR)—]		76	6.34
OCCCN1c2cccc(-c3cccc(OC(F)(F)F)c3)c2OCC1c1cccc(OC(F)(F)C(F)F)c1 (centres unmarked) [Compound 26, 3-[3-[3-(1,1,2,2-Tetrafluoro-ethoxy)-phenyl]-8-(3-trifluoromethoxy-phenyl)-2,3-dihydro-benzo[1,4]oxazin-4-yl]-propan-1-ol]		10	
OC(CN1c2cccc(-c3cccc(OC(F)(F)F)c3)c2OCC1c1ccc(OC(F)(F)F)cc1)C(F)(F)F (centres unmarked) [Compound 98, 1,1,1-Trifluoro-3-[3-(4-trifluoromethoxy-phenyl)-8-(3-trifluoromethoxy-phenyl)-2,3-dihydro-benzo[1,4]oxazin-4-yl]-propan-2-ol]	10%		
OC(CN1c2cccc(-c3cccc(OC(F)(F)F)c3)c2OCC1c1ccoc1)C(F)(F)F (centres unmarked) [Compound 106, 1,1,1-Trifluoro-3-[3-furan-3-yl-8-(3-trifluoromethoxy-phenyl)-2,3-dihydro-benzo[1,4]oxazin-4-yl]-propan-2-ol]	0%		
OCCN1c2cccc(-c3cccc(OC(F)(F)F)c3)c2OCC1c1cccc(OC(F)(F)C(F)F)c1 (centres unmarked) [Compound 23, 2-[3-[3-(1,1,2,2-Tetrafluoro-ethoxy)-phenyl]-8-(3-trifluoromethoxy-phenyl)-2,3-dihydro-benzo[1,4]oxazin-4-yl]-ethanol]		29	
CCc1ccc(C2COc3c(-c4cccc(OC(F)(F)F)c4)cccc3N2CC(O)C(F)(F)F)s1 (centres unmarked) [Compound 58, 3-[3-(5-Ethyl-thiophen-2-yl)-8-(3-trifluoromethoxy-phenyl)-2,3-dihydro-benzo[1,4]oxazin-4-yl]-1,1,1-trifluoro-propan-2-ol]	60% and 96%		6.30
O[C@@H](CN1c2cccc(-c3cc(F)c(F)c(F)c3)c2OC[C@@H]1c1cccc(OC(F)(F)C(F)F)c1)C(F)(F)F [Compound 76, 4H-1,4-Benzoxazine-4-ethanol, 2,3-dihydro-3-[3-(1,1,2,2-tetrafluoroethoxy)phenyl]-8-[3,4,5-trifluoro-phenyl]-α-(trifluoromethyl)-, (3S,αS)—]	101%	106	7.39
COC(=O)NCCN1c2cccc(-c3cccc(OC(F)(F)F)c3)c2OCC1c1cccc(OC(F)(F)C(F)F)c1 (centres unmarked) [Compound 41, {2-[3-[3-(1,1,2,2-Tetrafluoro-ethoxy)-phenyl]-8-(3-trifluoromethoxy-phenyl)-2,3-dihydro-benzo[1,4]oxazin-4-yl]-ethyl}-carbamic acid methyl ester]		2	
OC(CN1c2cccc(-c3cccc(OC(F)(F)F)c3)c2OCC1c1ccc(OC(F)(F)C(F)F)cc1)C(F)(F)F (centres unmarked) [Compound 93, 1,1,1-Trifluoro-3-[3-[4-(1,1,2,2-tetrafluoro-ethoxy)-phenyl]-8-(3-trifluoromethoxy-phenyl)-2,3-dihydro-benzo[1,4]oxazin-4-yl]propan-2-ol]	33%		
OC(CN1c2cccc(-c3cccc(OC(F)(F)F)c3)c2OCC1c1cccc(Cl)c1)C(F)(F)F (centres unmarked) [Compound 102, 3-[3-(3-Chloro-phenyl)-8-(3-trifluoromethoxy-phenyl)-2,3-dihydro-benzo[1,4]oxazin-4-yl]-1,1,1-trifluoro-propan-2-ol]	0%		
OC(CF)CN1c2cccc(-c3cccc(OC(F)(F)F)c3)c2OCC1c1cccc(OC(F)(F)C(F)F)c1 (centres unmarked) [Compound 68, 1-Fluoro-3-[3-[3-(1,1,2,2-tetrafluoro-ethoxy)-phenyl]-8-(3-trifluoromethoxy-phenyl)-2,3-dihydro-benzo[1,4]oxazin-4-yl]-propan-2-ol]	79% and 91%		6.90
C[C@H](O)CN1c2cccc(-c3cccc(OC(F)(F)F)c3)c2OC[C@@H]1c1cccc(OC(F)(F)C(F)F)c1 [Compound 36, 4H-1,4-Benzoxazine-4-ethanol, 2,3-dihydro-α-methyl-3-[3-(1,1,2,2-tetrafluoroethoxy)phenyl]-8-[3-(trifluoromethoxy)phenyl]-, (3S,αS)—]		28	
CC(C)(C)C(=O)CC1COc2c(-c3cccc(OC(F)(F)F)c3)cccc2N1CC(O)C(F)(F)F (centres unmarked) [Compound 56, 3,3-Dimethyl-1-[4-(3,3,3-trifluoro-2-hydroxy-propyl)-8-(3-trifluoromethoxy-phenyl)-3,4-dihydro-2H-benzo[1,4]oxazin-3-yl]-butan-2-one]	9%		
OC(CN1c2cccc(-c3cccc(OC(F)(F)F)c3)c2OCC1c1ccccc1OC(F)(F)C(F)F)C(F)(F)F (centres unmarked) [Compound 91, 1,1,1-Trifluoro-3-[3-[2-(1,1,2,2-tetrafluoro-ethoxy)-phenyl]-8-(3-trifluoromethoxy-phenyl)-2,3-dihydro-benzo[1,4]oxazin-4-yl]-propan-2-ol]	6%		
OC(CN1c2cccc(-c3cccc(OC(F)(F)F)c3)c2OCC1c1cccc(SC(F)(F)F)c1)C(F)(F)F (centres unmarked) [Compound 16, 1,1,1-Trifluoro-3-[8-(3-trifluoromethoxy-phenyl)-3-(3-trifluoromethylsulfanyl-phenyl)-2,3-dihydro-benzo[1,4]oxazin-4-yl]-propan-2-ol]	20%		
OC(CF)CN1c2cccc(-c3cccc(OC(F)(F)F)c3)c2OC[C@@H]1c1cccc(OC(F)(F)C(F)F)c1 (stereo in doubt) [Compound 75, 4H-1,4-Benzoxazine-4-ethanol, 2,3-dihydro-α-fluoromethyl-3-[3-(1,1,2,2-tetrafluoroethoxy)phenyl]-8-[3-(trifluoromethoxy)phenyl]-, (3S,αS)—]		55	6.83
O=C(CN1c2cccc(-c3cccc(OC(F)(F)F)c3)c2OC[C@@H]1c1cccc(OC(F)(F)C(F)F)c1)C(F)(F)F [Compound 37, 2-Propanone, 3-[(3S)-2,3-dihydro-3-[3-(1,1,2,2-tetrafluoroethoxy)phenyl]-8-[3-(trifluoromethoxy)phenyl]-4H-1,4-benzoxazin-4-yl]-1,1,1-trifluoro-]		5	
CN1c2cccc(-c3cccc(OC(F)(F)F)c3)c2OCC1c1cccc(OC(F)(F)C(F)F)c1 (centres unmarked) [Compound 32, 4-Methyl-3-[3-(1,1,2,2-tetrafluoro-ethoxy)-phenyl]-8-(3-trifluoromethoxy-phenyl)-3,4-dihydro-2H-benzo[1,4]oxazine]		0	
OC(CN1c2cccc(-c3cccc(OC(F)(F)F)c3)c2OCC1c1cccs1)C(F)(F)F (centres unmarked) [Compound 103, 1,1,1-Trifluoro-3-[3-thiophen-2-yl-8-(3-trifluoromethoxy-phenyl)-2,3-dihydro-benzo[1,4]oxazin-4-yl]-propan-2-ol]	20%		
CCN1c2cccc(-c3cccc(OC(F)(F)F)c3)c2OCC1c1cccc(OC(F)(F)C(F)F)c1 (centres unmarked) [Compound 33, 4-Ethyl-3-[3-(1,1,2,2-tetrafluoro-ethoxy)-phenyl]-8-(3-trifluoromethoxy-phenyl)-3,4-dihydro-2H-benzo[1,4]oxazine]		24	
